Results from the supplement of paper PMC10307832.

What was measured:
Assay in all cases: relative viability (nuclei count vs DMSO), 5 days (fraction); higher = more cells survive
[1] = test system: ABC-1
How it was run: (§1)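 Relative viability divides the nuclei count in treated wells by that in vehicle wells. Lung cancer cell lines were seeded in 1536-well plates, dosed by pin tool the next day, and fixed and stained after 5 days in one step with final 0.05% Triton X-100, 1% formaldehyde and 1 ug/ml Hoechst. Dosing was a single drug or a fixed anchor-drug dose plus five library-drug doses (not always all listed) in √10 steps, and values are medians of duplicate plates imaged at 4×.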

[2] = test system: NCI-H1355
How it was run: as §1

[3] = test system: NCI-H322M
How it was run: as §1

[4] = test system: PC-3 [JPC-3]
How it was run: as §1

[5] = test system: NCI-H661
How it was run: as §1

[6] = test system: LK-2
How it was run: as §1

[7] = test system: NCI-H1437
How it was run: as §1

[8] = test system: H3255
How it was run: as §1

[9] = test system: HCC-15
How it was run: as §1

[10] = test system: CAL-12T
How it was run: as §1

[11] = test system: NCI-H2405
How it was run: as §1

[12] = test system: NCI-H2228
How it was run: as §1

[13] = test system: NCI-H1651
How it was run: as §1

[14] = test system: EKVX
How it was run: as §1

[15] = test system: NCI-H520
How it was run: as §1

[16] = test system: NCI-H1563
How it was run: as §1

[17] = test system: RERF-LC-KJ
How it was run: as §1

[18] = test system: COR-L23
How it was run: as §1

[19] = test system: SW 1573
How it was run: as §1

[20] = test system: SK-MES-1
How it was run: as §1

[21] = test system: PC-14
How it was run: as §1

[22] = test system: HCC-827
How it was run: as §1

[23] = test system: NCI-H1734
How it was run: as §1

COc1cc(N2CCC(C(N)=O)CC2)ccc1Nc1nc(N)c(Cl)c(Nc2ccccc2S(=O)(=O)C(C)C)n1 [HG-5-88-01] + C[C@]1(O)C[C@@H](c2nc(-c3ccc4ccc(-c5ccccc5)nc4c3)c3c(N)nccn32)C1 [Linsitinib] (partner 1 µM)
relative viability ([1]; first compound 0.04 µM): 0.679
relative viability ([1]; first compound 0.1265 µM): 0.894
relative viability ([1]; first compound 0.4 µM): 0.815
relative viability ([1]; first compound 1.265 µM): 0.668
relative viability ([1]; first compound 4 µM): 1.01
relative viability ([2]; first compound 0.04 µM): 0.863
relative viability ([2]; first compound 0.1265 µM): 0.85
relative viability ([2]; first compound 0.4 µM): 0.864
relative viability ([2]; first compound 1.265 µM): 0.705
relative viability ([2]; first compound 4 µM): 0.767
relative viability ([3]; first compound 0.04 µM): 0.892
relative viability ([3]; first compound 0.1265 µM): 0.922
relative viability ([3]; first compound 0.4 µM): 1.01
relative viability ([3]; first compound 1.265 µM): 0.657
relative viability ([3]; first compound 4 µM): 0.858
relative viability ([4]; first compound 0.04 µM): 0.964
relative viability ([4]; first compound 0.1265 µM): 0.956
relative viability ([4]; first compound 0.4 µM): 0.947
relative viability ([4]; first compound 1.265 µM): 0.944
relative viability ([4]; first compound 4 µM): 0.83
relative viability ([5]; first compound 0.04 µM): 0.586
relative viability ([5]; first compound 0.1265 µM): 0.624
relative viability ([5]; first compound 0.4 µM): 0.682
relative viability ([5]; first compound 4 µM): 0.669
relative viability ([6]; first compound 0.04 µM): 0.591
relative viability ([6]; first compound 0.1265 µM): 0.519
relative viability ([6]; first compound 0.4 µM): 0.634
relative viability ([6]; first compound 4 µM): 0.768
relative viability ([7]; first compound 0.04 µM): 1.04
relative viability ([7]; first compound 0.1265 µM): 1.04
relative viability ([7]; first compound 0.4 µM): 0.926
relative viability ([7]; first compound 1.265 µM): 0.996
relative viability ([7]; first compound 4 µM): 1.18
relative viability ([8]; first compound 0.04 µM): 1.03
relative viability ([8]; first compound 0.1265 µM): 0.913
relative viability ([8]; first compound 0.4 µM): 0.939
relative viability ([8]; first compound 4 µM): 0.734
relative viability ([9]; first compound 0.04 µM): 0.862
relative viability ([9]; first compound 0.1265 µM): 0.837
relative viability ([9]; first compound 0.4 µM): 0.92
relative viability ([9]; first compound 1.265 µM): 0.835
relative viability ([9]; first compound 4 µM): 0.763
relative viability ([10]; first compound 0.04 µM): 0.773
relative viability ([10]; first compound 0.1265 µM): 0.592
relative viability ([10]; first compound 0.4 µM): 0.78
relative viability ([10]; first compound 1.265 µM): 0.561
relative viability ([10]; first compound 4 µM): 0.726
relative viability ([11]; first compound 0.04 µM): 1.06
relative viability ([11]; first compound 0.1265 µM): 1.01
relative viability ([11]; first compound 0.4 µM): 0.807
relative viability ([11]; first compound 1.265 µM): 0.714
relative viability ([11]; first compound 4 µM): 1.02
relative viability ([12]; first compound 0.04 µM): 0.234
relative viability ([12]; first compound 0.1265 µM): 0.382
relative viability ([12]; first compound 0.4 µM): 0.389
relative viability ([12]; first compound 1.265 µM): 0.41
relative viability ([12]; first compound 4 µM): 0.315
relative viability ([13]; first compound 0.04 µM): 1.02
relative viability ([13]; first compound 0.1265 µM): 1.09
relative viability ([13]; first compound 0.4 µM): 0.991
relative viability ([13]; first compound 1.265 µM): 1.07
relative viability ([13]; first compound 4 µM): 1.19
relative viability ([14]; first compound 0.04 µM): 0.972
relative viability ([14]; first compound 0.1265 µM): 1.11
relative viability ([14]; first compound 0.4 µM): 0.889
relative viability ([14]; first compound 4 µM): 1.03
relative viability ([15]; first compound 0.04 µM): 0.926
relative viability ([15]; first compound 0.1265 µM): 0.832
relative viability ([15]; first compound 0.4 µM): 0.689
relative viability ([15]; first compound 1.265 µM): 1.18
relative viability ([15]; first compound 4 µM): 1.14
relative viability ([16]; first compound 0.04 µM): 1.1
relative viability ([16]; first compound 0.1265 µM): 1.17
relative viability ([16]; first compound 0.4 µM): 1.23
relative viability ([16]; first compound 1.265 µM): 1.21
relative viability ([16]; first compound 4 µM): 1.21
relative viability ([17]; first compound 0.04 µM): 0.823
relative viability ([17]; first compound 0.1265 µM): 0.897
relative viability ([17]; first compound 0.4 µM): 0.849
relative viability ([17]; first compound 1.265 µM): 0.864
relative viability ([17]; first compound 4 µM): 0.539
relative viability ([18]; first compound 0.04 µM): 0.885
relative viability ([18]; first compound 0.1265 µM): 0.888
relative viability ([18]; first compound 0.4 µM): 0.872
relative viability ([18]; first compound 1.265 µM): 0.738
relative viability ([18]; first compound 4 µM): 0.757
relative viability ([19]; first compound 0.04 µM): 0.796
relative viability ([19]; first compound 0.1265 µM): 0.961
relative viability ([19]; first compound 0.4 µM): 0.855
relative viability ([19]; first compound 1.265 µM): 0.704
relative viability ([19]; first compound 4 µM): 0.83
relative viability ([20]; first compound 0.04 µM): 1.02
relative viability ([20]; first compound 0.1265 µM): 1.03
relative viability ([20]; first compound 0.4 µM): 1.08
relative viability ([20]; first compound 1.265 µM): 1.04
relative viability ([20]; first compound 4 µM): 1.14
relative viability ([21]; first compound 0.04 µM): 0.977
relative viability ([21]; first compound 0.1265 µM): 1.02
relative viability ([21]; first compound 0.4 µM): 0.955
relative viability ([21]; first compound 1.265 µM): 0.917
relative viability ([21]; first compound 4 µM): 0.331
relative viability ([22]; first compound 0.04 µM): 0.953
relative viability ([22]; first compound 0.1265 µM): 1.04
relative viability ([22]; first compound 0.4 µM): 0.934
relative viability ([22]; first compound 1.265 µM): 0.955
relative viability ([22]; first compound 4 µM): 0.69
relative viability ([23]; first compound 0.04 µM): 0.811
relative viability ([23]; first compound 0.1265 µM): 0.851
relative viability ([23]; first compound 0.4 µM): 0.964
relative viability ([23]; first compound 1.265 µM): 0.885
relative viability ([23]; first compound 4 µM): 1.02

CC(C)Oc1cc(Nc2nc(N[C@@H](C)c3ccc(F)cn3)ncc2Cl)n[nH]1 [AZ23] + C[C@]1(O)C[C@@H](c2nc(-c3ccc4ccc(-c5ccccc5)nc4c3)c3c(N)nccn32)C1 [Linsitinib] (partner 1 µM)
relative viability ([1]; first compound 0.01 µM): 0.573
relative viability ([1]; first compound 0.03162 µM): 0.916
relative viability ([1]; first compound 0.3162 µM): 0.866
relative viability ([2]; first compound 0.01 µM): 0.909
relative viability ([2]; first compound 0.03162 µM): 0.784
relative viability ([2]; first compound 0.3162 µM): 0.724
relative viability ([3]; first compound 0.01 µM): 0.919
relative viability ([3]; first compound 0.03162 µM): 0.957
relative viability ([3]; first compound 0.3162 µM): 1.13
relative viability ([4]; first compound 0.01 µM): 1.03
relative viability ([4]; first compound 0.03162 µM): 1.04
relative viability ([4]; first compound 0.3162 µM): 0.973
relative viability ([5]; first compound 0.01 µM): 0.531
relative viability ([5]; first compound 0.03162 µM): 0.776
relative viability ([5]; first compound 0.3162 µM): 0.623
relative viability ([6]; first compound 0.01 µM): 0.325
relative viability ([6]; first compound 0.03162 µM): 0.538
relative viability ([6]; first compound 0.3162 µM): 0.5
relative viability ([7]; first compound 0.01 µM): 1.07
relative viability ([7]; first compound 0.03162 µM): 1.18
relative viability ([7]; first compound 0.3162 µM): 1.28
relative viability ([8]; first compound 0.01 µM): 1.03
relative viability ([8]; first compound 0.03162 µM): 1.08
relative viability ([8]; first compound 0.3162 µM): 0.985
relative viability ([9]; first compound 0.01 µM): 0.916
relative viability ([9]; first compound 0.03162 µM): 0.906
relative viability ([9]; first compound 0.3162 µM): 0.875
relative viability ([10]; first compound 0.01 µM): 0.551
relative viability ([10]; first compound 0.03162 µM): 0.724
relative viability ([10]; first compound 0.3162 µM): 0.861
relative viability ([11]; first compound 0.01 µM): 0.976
relative viability ([11]; first compound 0.03162 µM): 0.902
relative viability ([11]; first compound 0.3162 µM): 0.873
relative viability ([12]; first compound 0.01 µM): 0.828
relative viability ([12]; first compound 0.03162 µM): 0.727
relative viability ([12]; first compound 0.3162 µM): 0.473
relative viability ([13]; first compound 0.01 µM): 0.691
relative viability ([13]; first compound 0.03162 µM): 1
relative viability ([13]; first compound 0.3162 µM): 1.18
relative viability ([14]; first compound 0.01 µM): 1.01
relative viability ([14]; first compound 0.03162 µM): 1.22
relative viability ([14]; first compound 0.3162 µM): 0.969
relative viability ([15]; first compound 0.01 µM): 1.18
relative viability ([15]; first compound 0.03162 µM): 1.04
relative viability ([15]; first compound 0.3162 µM): 0.921
relative viability ([16]; first compound 0.01 µM): 1.14
relative viability ([16]; first compound 0.03162 µM): 1.19
relative viability ([16]; first compound 0.3162 µM): 1.08
relative viability ([17]; first compound 0.01 µM): 0.833
relative viability ([17]; first compound 0.03162 µM): 0.992
relative viability ([17]; first compound 0.3162 µM): 0.987
relative viability ([18]; first compound 0.01 µM): 0.948
relative viability ([18]; first compound 0.03162 µM): 1.11
relative viability ([18]; first compound 0.3162 µM): 0.878
relative viability ([19]; first compound 0.01 µM): 0.786
relative viability ([19]; first compound 0.03162 µM): 0.937
relative viability ([19]; first compound 0.3162 µM): 0.691
relative viability ([20]; first compound 0.01 µM): 1.09
relative viability ([20]; first compound 0.03162 µM): 1.16
relative viability ([20]; first compound 0.3162 µM): 1.12
relative viability ([21]; first compound 0.01 µM): 0.946
relative viability ([21]; first compound 0.03162 µM): 1.16
relative viability ([21]; first compound 0.3162 µM): 1.03
relative viability ([22]; first compound 0.01 µM): 1
relative viability ([22]; first compound 0.03162 µM): 1.04
relative viability ([22]; first compound 0.3162 µM): 0.93
relative viability ([23]; first compound 0.01 µM): 0.921
relative viability ([23]; first compound 0.03162 µM): 0.814
relative viability ([23]; first compound 0.3162 µM): 0.894
